In US20040171073A1, “Compounds for modulation of cholesterol transport” (Massachusetts Institute of Technology, priority 2002, published 2004):

What follows are compounds tested against T1, murine SR-BI (Mus musculus, UniProt Q61009) (assay: Uptake of DiI from DiI-HDL by ldlA[mSR-BI] cells (high throughput screen and concentration dependence)). Details: Test 1.
T1 construct: expressed in transfected cells; host or cells: ldlA-7 (LDL receptor deficient Chinese hamster ovary cells)
T1 sequence (Q61009 1-509): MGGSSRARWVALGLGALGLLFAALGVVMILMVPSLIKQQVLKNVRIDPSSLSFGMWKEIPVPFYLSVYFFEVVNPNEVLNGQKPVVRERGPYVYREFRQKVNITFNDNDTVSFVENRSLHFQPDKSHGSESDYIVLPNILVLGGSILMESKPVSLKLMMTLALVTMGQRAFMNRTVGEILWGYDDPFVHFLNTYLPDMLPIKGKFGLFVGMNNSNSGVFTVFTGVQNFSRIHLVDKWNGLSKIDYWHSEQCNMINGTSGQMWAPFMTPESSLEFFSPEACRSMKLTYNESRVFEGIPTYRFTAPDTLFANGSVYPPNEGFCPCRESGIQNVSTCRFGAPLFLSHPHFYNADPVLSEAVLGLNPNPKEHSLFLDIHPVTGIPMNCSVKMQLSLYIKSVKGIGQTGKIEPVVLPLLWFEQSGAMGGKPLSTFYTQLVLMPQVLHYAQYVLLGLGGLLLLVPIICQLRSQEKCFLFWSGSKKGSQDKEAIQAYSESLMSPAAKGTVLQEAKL
Type: cell-based

SMILES | ENDOHDL Test 1
O=C(O)c1cc(C(=O)O)nc(C(=O)O)c1 [MIT 9952-60] | 1.13
CCN(CC(O)COc1ccccc1C(C)=O)S(=O)(=O)O.[Na+] (stereo not drawn) [MIT 9952-62] | 1.28
NSCc1nc(-c2ccc(Cl)cc2)no1 [MIT 9952-64] | 0.58
O=C(/C=C/C=C(Cl)Cl)c1ccc2c(c1)OCO2 [MIT 9952-65] | 1.29
O=C(CSC1=NCCN1)Nc1ccccc1 [MIT 9952-67] | 0.55
Cc1cc(C)c(/C=N/N=C/c2c(C)cc(C)cc2C)c(C)c1 [MIT 9952-69] | 1.18
CCOC(=O)c1c(C)n(-c2ccccc2)c2ccc(NS(=O)(=O)c3ccccc3)cc12 [MIT 9952-71] | 0.62
CN(CC#CC(O)(c1ccccc1)c1ccccc1)C1CCCCC1 [MIT 9952-72] | 1.07
CCOC(=O)c1c(C)n(-c2ccc(C)cc2)c2ccc(O)cc12 [MIT 9952-73] | 0.61
CCNc1ccc(N)c(C)c1C.O=S(=O)(O)O [MIT 9952-74] | 0.71
O=C(C[n+]1ccc(CCSC2Cc3cccc4cccc2c34)cc1)c1ccc([N+](=O)[O-])cc1 (stereo not drawn) [MIT 9952-75] | 0.64
C/C(=C\C(=O)NCCc1c[nH]c2ccccc12)C(=O)O [MIT 9952-76] | 1.25
COC(=O)Nc1cc([N+](=O)[O-])cc([N+](=O)[O-])c1Br [MIT 9952-79] | 0.61
Cc1cccc(N2C(=O)CC(N3CCOCC3)C2=O)c1 (stereo not drawn) [MIT 9952-80] | 1.34
O=C1CC(N2CCOCC2)C(=O)N1c1ccc(Br)cc1 (stereo not drawn) [MIT 9952-81] | 1.32
Cc1nc(O)c(C(c2cc([N+](=O)[O-])ccc2O)c2c(O)nc(C)nc2O)c(O)n1 [MIT 9952-82] | 1.27
O=C(O)CSC1CCCC/C1=N\Nc1ccc([N+](=O)[O-])cc1[N+](=O)[O-] (stereo not drawn) [MIT 9952-84] | 0.74
CSc1sc(SC)c(C[n+]2ccccc2)c1C[n+]1ccccc1.[I-].[I-] [MIT 9952-85] | 0.56
O=C(N/N=C/c1ccc(O)cc1)C1CC1(c1ccccc1)c1ccccc1 (stereo not drawn) [MIT 9952-87] | 0.67
COc1ccc(/C=C2/S/C(=N/c3ccccc3)NC2=O)c(OC)c1 [MIT 9952-88] | 0.73
O=C(NC(NC(=S)Nc1cc(C(F)(F)F)ccc1Cl)C(Cl)(Cl)Cl)c1ccco1 (stereo not drawn) [MIT 9952-90] | 0.62
CCn1c(/C=C/C=C2\SCCN2C)[n+](CC)c2cc(Cl)ccc21 [MIT 9952-92] | 0.7
COc1ccc(/C(C)=N/NC(=O)C2CC2(c2ccccc2)c2ccccc2)c(OC)c1 (stereo not drawn) [MIT 9952-93] | 0.66
O=C(O)CCNC(=O)c1ccccc1 [MIT 9952-94] | 1.21
O=C1C(=O)c2ccc(Oc3ccc([N+](=O)[O-])cc3)c3cccc1c23 [MIT 9952-95] | 0.79
O=C1CC(N2CCOCC2)C(=O)N1c1ccc(Br)cc1 (stereo not drawn) [MIT 9952-96] | 1.32
O=C(/C=C/c1ccccc1)NC(NC(=S)Nc1cccc([N+](=O)[O-])c1)C(Cl)(Cl)Cl (stereo not drawn) [MIT 9952-100] | 0.5

Same assay, conditions: Test 2

SMILES | ENDOHDL Test 2
O=C(O)c1cc(C(=O)O)nc(C(=O)O)c1 [MIT 9952-60] | 1.17
CCN(CC(O)COc1ccccc1C(C)=O)S(=O)(=O)O.[Na+] (stereo not drawn) [MIT 9952-62] | 1.24
NSCc1nc(-c2ccc(Cl)cc2)no1 [MIT 9952-64] | 0.58
O=C(/C=C/C=C(Cl)Cl)c1ccc2c(c1)OCO2 [MIT 9952-65] | 1.24
O=C(CSC1=NCCN1)Nc1ccccc1 [MIT 9952-67] | 0.54
Cc1cc(C)c(/C=N/N=C/c2c(C)cc(C)cc2C)c(C)c1 [MIT 9952-69] | 1.32
CCOC(=O)c1c(C)n(-c2ccccc2)c2ccc(NS(=O)(=O)c3ccccc3)cc12 [MIT 9952-71] | 0.55
CN(CC#CC(O)(c1ccccc1)c1ccccc1)C1CCCCC1 [MIT 9952-72] | 1.12
CCOC(=O)c1c(C)n(-c2ccc(C)cc2)c2ccc(O)cc12 [MIT 9952-73] | 0.59
CCNc1ccc(N)c(C)c1C.O=S(=O)(O)O [MIT 9952-74] | 0.69
O=C(C[n+]1ccc(CCSC2Cc3cccc4cccc2c34)cc1)c1ccc([N+](=O)[O-])cc1 (stereo not drawn) [MIT 9952-75] | 0.71
C/C(=C\C(=O)NCCc1c[nH]c2ccccc12)C(=O)O [MIT 9952-76] | 1.26
COC(=O)Nc1cc([N+](=O)[O-])cc([N+](=O)[O-])c1Br [MIT 9952-79] | 0.63
Cc1cccc(N2C(=O)CC(N3CCOCC3)C2=O)c1 (stereo not drawn) [MIT 9952-80] | 1.2
O=C1CC(N2CCOCC2)C(=O)N1c1ccc(Br)cc1 (stereo not drawn) [MIT 9952-81] | 1.17
Cc1nc(O)c(C(c2cc([N+](=O)[O-])ccc2O)c2c(O)nc(C)nc2O)c(O)n1 [MIT 9952-82] | 1.4
O=C(O)CSC1CCCC/C1=N\Nc1ccc([N+](=O)[O-])cc1[N+](=O)[O-] (stereo not drawn) [MIT 9952-84] | 0.66
CSc1sc(SC)c(C[n+]2ccccc2)c1C[n+]1ccccc1.[I-].[I-] [MIT 9952-85] | 0.68
O=C(N/N=C/c1ccc(O)cc1)C1CC1(c1ccccc1)c1ccccc1 (stereo not drawn) [MIT 9952-87] | 0.67
COc1ccc(/C=C2/S/C(=N/c3ccccc3)NC2=O)c(OC)c1 [MIT 9952-88] | 0.77
O=C(NC(NC(=S)Nc1cc(C(F)(F)F)ccc1Cl)C(Cl)(Cl)Cl)c1ccco1 (stereo not drawn) [MIT 9952-90] | 0.61
CCn1c(/C=C/C=C2\SCCN2C)[n+](CC)c2cc(Cl)ccc21 [MIT 9952-92] | 0.63
COc1ccc(/C(C)=N/NC(=O)C2CC2(c2ccccc2)c2ccccc2)c(OC)c1 (stereo not drawn) [MIT 9952-93] | 0.71
O=C(O)CCNC(=O)c1ccccc1 [MIT 9952-94] | 1.22
O=C1C(=O)c2ccc(Oc3ccc([N+](=O)[O-])cc3)c3cccc1c23 [MIT 9952-95] | 0.73
O=C1CC(N2CCOCC2)C(=O)N1c1ccc(Br)cc1 (stereo not drawn) [MIT 9952-96] | 1.17
O=C(/C=C/c1ccccc1)NC(NC(=S)Nc1cccc([N+](=O)[O-])c1)C(Cl)(Cl)Cl (stereo not drawn) [MIT 9952-100] | 0.51
